Our source for the solubility values is US5385941A, “Salts/ion pairs of non-steroidal anti-inflammatory drugs in various dosage forms” (Warner-Lambert Company, priority 1993, dated 1995).

For orientation: solubility means the concentration that dissolves in the medium under given conditions. A high value points to much dissolved substance.

A short description of this data set: physchem. The settings on record: water.

The structures appear in SMILES notation. Converted amounts (≈) assume the structure as drawn.

`Cc1ccc(Cl)c(Nc2ccccc2C(=O)O)c1Cl` [MA, Meclofenamic acid] displayed a solubility of 30 µg/mL (≈ 101 µM).
